The assay has as its system isolated rat hepatocytes. Briefly: Hepatic production of glucose, 3 h incubation. As to conditions: for activity at 50 µM / activity at 100 µM: Hepatocyte, rat hepatocytes; for activity at 50 µM: read-out: HGP % of ctrl @ 50 μM; for activity at 100 µM: read-out: HGP % of ctrl @ 100 μM. In kind it is cell-based, Wistar rat. The protocol: The hepatocytes are isolated from Wistar rat liver having fasted for 24 h after perfusion of collagenase in the portal vein. 1) The freshly isolated hepatocytes are sown in 6-well plates coated with collagen and containing an adhesion medium (Williams Medium). After adhesion, the medium is replaced with RPMI 1640 medium without any glucose, containing hydrocortisone (7·10^−5M) for a duration from 16 to 18 h. The next day, the glucose hepatic production test is conducted in a Krebs medium for 3 h. The basal conditions are cells incubated with only Krebs, the stimulated conditions are the cells placed in Krebs+lactate+pyruvate, the produced conditions are the cells exposed to chemical compounds in a Krebs/lactate/pyruvate medium. In the case when the compounds are dissolved in DMSO, all the conditions of the tests are met in the presence of a final concentration of 0.1% DMSO. The positive control of the test is the mercaptopicolinate known for its inhibitory action on hepatic production of glucose via the phosphoenolpyruvate carboxykinase. For short term treatments, the compounds are incubated for 3 h. For long term treatments, the compounds are incubated for 20 h at the moment when the hepatocytes are cultivated in RPMI and then added during the hepatic production test for 3 h. At the end of the 3 hours of incubation, the supernatant is recovered for measurement of glucose with a colorimetric method using glucose oxidase. The cells are lysed with a 0.1% NaOH aqueous solution in order to measure the amount of protein with the Lowry method. The results are expressed in mmol of glucose per mg of protein.

`CCOC(=O)COCc1nc2ccccn2c1C#Cc1cccc(C(F)(F)F)c1` [Derivative 7, ethyl 2-((3-((3-(trifluoromethyl)-phenyl)ethynyl)imidazo[1,2-a]pyridin-2-yl)methoxy)acetate]: the activity at 50 µM is 55% and the activity at 100 µM was 45%. In addition, the “inhibition of hepatic production of glucose” value (from here on “inhibition”) (with two doses) is “strongest inhibitions”.

With `O=C(O)c1cccc(OCc2nc3ccccn3c2C#Cc2ccccc2)c1` [Derivative 93, 3-((3-(phenylethynyl)imidazo[1,2-a]pyridin-2-yl)methoxy) benzoic acid], the activity at 50 µM came out at 26% and the activity at 100 µM is 19%. Moreover, the “inhibition” value (with two doses) is reported as “strongest inhibitions”.

For the compound `O=C(CSCc1nc2ccccn2c1C#Cc1cccc(OC(F)(F)F)c1)Nc1cccnc1` [Derivative 126, N-(3-pyridyl)-2-[[3-[2-[3-(trifluoromethoxy)phenyl]ethynyl]imidazo[1,2-a]pyridin-2-yl]methylsulfanyl]acetamide], the activity at 50 µM stood at 72% and the activity at 100 µM is 68%.

With `CCOC(=O)CSCc1nc2ccccn2c1C#Cc1cccc(C(F)(F)F)c1` [Derivative 108, ethyl 2-[[3-[2-[3-(trifluoromethyl)-phenyl]ethynyl]imidazo[1,2-a]pyridin-2-yl]methylsulfanyl]acetate], the activity at 50 µM was 89% and the activity at 100 µM amounted to 64%.

In the case of `CCOC(=O)COCc1nc2ccccn2c1C#Cc1cccc(F)c1` [Derivative 23, ethyl 2-((3-((3-fluorophenyl)-ethynyl)imidazo[1,2-a]pyridin-2-yl)methoxy)acetate], the activity at 50 µM was 95% and the activity at 100 µM turned out to be 73%.

For `O=C([O-])COCc1nc2ccccn2c1C#Cc1cccc(C(F)(F)F)c1.[Na+]` [Derivative 51, sodium 2-((3-((3-(trifluoromethyl)-phenyl)ethynyl)imidazo[1,2-a]pyridin-2-yl)methoxy)acetate], the activity at 50 µM worked out at 61% and the activity at 100 µM is 45%. Also, the “inhibition” value (dose of 100 μM) is recorded as “strongest inhibitions”.

On to `O=C(O)COCc1nc2ccccn2c1C#Cc1cccc(OC(F)(F)F)c1` [Derivative 29, 2-((3-((3-(trifluoromethoxy)phenyl)-ethynyl)imidazo[1,2-a]pyridin-2-yl)methoxy)acetic acid], for which the activity at 50 µM was 63% and the activity at 100 µM is 40%. Further, where the note is “dose of 100 μM”, the “inhibition” value is “strongest inhibitions”.

Consider `O=C(O)CSCc1nc2ccccn2c1C#Cc1cccc(C(F)(F)F)c1` [Derivative 115, 2-[[3-[2-[3-(trifluoromethyl)phenyl]-ethynyl]imidazo[1,2-a]pyridin-2-yl]methylsulfanyl]acetic acid], for which the activity at 50 µM was 94% and the activity at 100 µM was 54%. Besides, the “inhibition” value (dose of 100 μM) is “strongest inhibitions”.

Regarding `CC1(C)COC(=O)C1OCc1nc2ccccn2c1C#Cc1cccc(C(F)(F)F)c1` (stereo not shown) [Derivative 99, 4,4-dimethyl-3-[[3-[2-[3-(trifluoromethyl)phenyl]ethynyl]imidazo[1,2-a]pyridin-2-yl]methoxy]-tetrahydrofuran-2-one], the activity at 50 µM amounted to 85% and the activity at 100 µM amounted to 68%.

For the compound `CCOC(=O)COCc1nc2ccccn2c1C#Cc1ccc(OC)cc1` [Derivative 4, ethyl 2-((3-((4-methoxyphenyl)-ethynyl)-imidazo[1,2-a]pyridin-2-yl)-methoxy)acetate], the activity at 50 µM was 81% and the activity at 100 µM is 74%.

For the compound `O=C(O)c1ccc(OCc2nc3ccccn3c2C#Cc2cccc(C(F)(F)F)c2)cc1` [Derivative 90, 4-((3-((3-(trifluoromethyl)phenyl)-ethynyl)imidazo[1,2-a]pyridin-2-yl)methoxy)benzoic acid], the activity at 50 µM was found to be 77% and the activity at 100 µM is 27%. In addition, the “inhibition” value (dose of 100 μM) is reported as “strongest inhibitions”.

Regarding `COc1cccc(C#Cc2c(COCC(=O)O)nc3ccccn23)c1` [Derivative 30, 2-((3-((3-methoxyphenyl)ethynyl)-imidazo[1,2-a]pyridin-2-yl)methoxy)acetic acid], the activity at 50 µM came out at 74% and the activity at 100 µM came out at 60%.

As to `O=C(NO)c1ccccc1OCc1nc2ccccn2c1C#Cc1ccc(F)cc1` [Derivative 96, 2-((3-((4-fluorophenyl)ethynyl)-imidazo[1,2-a]pyridin-2-yl)-methoxy)-N-hydroxybenzamide], the activity at 50 µM worked out at 81% and the activity at 100 µM was 66%.

On to `O=C(O)CSCc1nc2ccc(Cl)cn2c1C#Cc1cccc(OC(F)(F)F)c1` [Derivative 119, 2-[[6-chloro-3-[2-[3-(trifluoro-methoxy)phenyl]ethynyl]imidazo [1,2-a]pyridin-2-yl]methyl-sulfanyl]acetic acid], for which the activity at 50 µM came out at 73%.

For `CN(C)CCNC(=O)c1ccccc1OCc1nc2ccccn2c1C#Cc1ccc(F)cc1` [Derivative 95, N-(2-(dimethylamino)ethyl)-2-((3-((4-fluorophenyl)ethynyl)-imidazo[1,2-a]pyridin-2-yl)methoxy)benzamide], the activity at 50 µM worked out at 65% and the activity at 100 µM is 62%.

As for `O=C(O)CSCc1nc2ccccn2c1C#Cc1cccc(OC(F)(F)F)c1` [Derivative 116, 2-[[3-[2-[3-(trifluoromethoxy)-phenyl]ethynyl]imidazo[1,2-a]pyridin-2-yl]methylsulfanyl] acetic acid], the activity at 50 µM is 88% and the activity at 100 µM was determined as 64%.

Regarding `COC(=O)c1ccccc1OCc1nc2ccccn2c1C#Cc1cccc(C(F)(F)F)c1` [Derivative 77, methyl 2-((3-((3-(trifluoromethyl)-phenyl)ethynyl)imidazo[1,2-a]pyridin-2-yl)methoxy)benzoate], the activity at 50 µM came to 87% and the activity at 100 µM came to 50%. Also, the “inhibition” value (dose of 100 μM) is “strongest inhibitions”.

Regarding `O=C(O)COCc1nc2ccccn2c1C#Cc1cccc(OC(F)F)c1` [Derivative 35, 2-((3-((3-(difluoromethoxy)phenyl)-ethynyl)imidazo[1,2-a]pyridin-2-yl)methoxy)acetic acid], the activity at 50 µM turned out to be 73% and the activity at 100 µM was 64%.

Consider `O=C(O)c1ccccc1OCc1nc2ccccn2c1C#Cc1cccc(C(F)(F)F)c1` [Derivative 89, 2-((3-((3-(trifluoromethyl)phenyl)-ethynyl)imidazo[1,2-a]pyridin-2-yl)methoxy)benzoic acid], for which the activity at 50 µM amounted to 78% and the activity at 100 µM was 33%. The “inhibition” value (dose of 100 μM) was “strongest inhibitions”.

On to `CCOC(=O)COCc1nc2ccccn2c1C#Cc1ccc(F)c(F)c1` [Derivative 10, ethyl 2-((3-((3,4-difluorophenyl)-ethynyl)imidazo[1,2-a]pyridin-2-yl)methoxy)acetate], for which the activity at 50 µM was found to be 86% and the activity at 100 µM turned out to be 71%.

For `CCOC(=O)CSCc1nc2ccccn2c1C#Cc1cccc(OC(F)(F)F)c1` [Derivative 109, ethyl 2-[[3-[2-[3-(trifluoromethoxy)-phenyl]ethynyl]imidazo[1,2-a]pyridin-2-yl]methylsulfanyl]acetate], the activity at 50 µM stood at 80% and the activity at 100 µM turned out to be 61%.

The values are drawn from US9381191B2, “Imidazopyridine derivatives useful in treating diabetes” (METABRAIN RESEARCH, priority 2012, dated 2016).
